Measured values as given in US9718819B2 (Merck Sharp & Dohme Corp., priority 2012, dated 2017).

Target: HIV-1 RT wild-type enzyme (Human immunodeficiency virus type 1 group M subtype B (isolate HXB2) (HIV-1), UniProt P04585)
Experiment: HIV-1 reverse transcriptase inhibitory activity (RT polymerase assay)
Format: biochemical
Conditions: HIV-1 RT wild-type enzyme 83 pM; RNA-dependent DNA polymerase activity; read-out: IC50
Outline: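 Enzyme and compound were preincubated 30 min at room temperature, then RNA/DNA hybrid (16.6 nM final; HCV-derived RNA, biotinylated primer) plus 2 μM dNTPs and 66.6 nM Ru-dUTP added, 90 min at 37 °C. Avidin capture and ECL counting; percent inhibition relative to DMSO (0%) and 1 μM efavirenz (100%), four-parameter IC50 fit.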

**Q.** `Cn1nccc1-c1cc(Cn2cnc(C(F)(F)F)c(Oc3cc(Cl)cc(C#N)c3)c2=O)c(=O)[nH]n1` [Example 114, 3-chloro-5-((1-((6-(1-methyl-1H-pyrazol-5-yl)-3-oxo-2,3-dihydropyridazin-4-yl)methyl)-6-oxo-4-(trifluoromethyl)-1,6-dihydropyrimidin-5-yl)oxy)benzonitrile] was tested. Which IC50 did it give?
**A.** 7 nM

**Q.** With `COc1cc(F)cc(-c2cc(Cn3cnc(C(F)(F)F)c(Oc4cc(Cl)cc(C#N)c4)c3=O)n[nH]c2=O)c1` [Example 61, 3-chloro-5-((1-((5-(3-fluoro-5-methoxyphenyl)-6-oxo-1,6-dihydropyridazin-3-yl)methyl)-6-oxo-4-(trifluoromethyl)-1,6-dihydropyrimidin-5-yl)oxy)benzonitrile] as the compound, how does the IC50 read?
**A.** 11 nM

**Q.** `N#Cc1cc(Cl)cc(Oc2c(C(F)(F)F)ncn(Cc3cc(-c4ccc(F)c(Cl)c4)c(=O)[nH]n3)c2=O)c1` [Example 34, 3-chloro-5-((1-((5-(3-chloro-4-fluorophenyl)-6-oxo-1,6-dihydropyridazin-3-yl)methyl)-6-oxo-4-(trifluoromethyl)-1,6-dihydropyrimidin-5-yl)oxy)benzonitrile] was tested. Which IC50 did it give?
**A.** 7 nM

**Q.** `N#Cc1cc(Cl)cc(Oc2c(C(F)(F)F)ncn(Cc3cc(-c4ccc(C(F)(F)F)cc4)n[nH]c3=O)c2=O)c1` [Example 119, 3-chloro-5-((6-oxo-1-((3-oxo-6-(4-(trifluoromethyl)phenyl)-2,3-dihydropyridazin-4-yl)methyl)-4-(trifluoromethyl)-1,6-dihydropyrimidin-5-yl)oxy)benzonitrile] was tested. Which IC50 did it give?
**A.** 12 nM

**Q.** For `N#Cc1cc(Cl)cc(Oc2c(C(F)(F)F)ncn(Cc3cc(-c4ccc(C(O)C(F)F)cc4)c(=O)[nH]n3)c2=O)c1` (centres unmarked) [Example 69, 3-chloro-5-((1-((5-(4-(2,2-difluoro-1-hydroxyethyl)phenyl)-6-oxo-1,6-dihydropyridazin-3-yl)methyl)-6-oxo-4-(trifluoromethyl)-1,6-dihydropyrimidin-5-yl)oxy)benzonitrile], which IC50 is on record?
**A.** 10 nM

**Q.** Which IC50 does the source give for `N#Cc1cc(Cl)cc(Oc2c(C(F)(F)F)ncn(Cc3ccn[nH]c3=O)c2=O)c1` [Example 5, 3-chloro-5-((6-oxo-1-((3-oxo-2,3-dihydropyridazin-4-yl)methyl)-4-(trifluoromethyl)-1,6-dihydropyrimidin-5-yl)oxy)benzonitrile] here?
**A.** 6 nM

**Q.** Which IC50 does the source give for `N#Cc1cc(Cl)cc(Oc2c(C(F)(F)F)ncn(Cc3cnc(OCC(F)(F)F)[nH]c3=O)c2=O)c1` [Example 139, 3-Chloro-5-{6-oxo-1-[6-oxo-2-(2,2,2-trifluoro-ethoxy)-1,6-dihydro-pyrimidin-5-ylmethyl]-4-trifluoromethyl-1,6-dihydro-pyrimidin-5-yloxy}-benzonitrile] here?
**A.** 45 nM

**Q.** `N#Cc1cc(Cl)cc(Oc2c(C(F)(F)F)ncn(Cc3cnc(-c4ccccc4F)[nH]c3=O)c2=O)c1` [Example 147, 3-chloro-5-((1-((2-(2-fluorophenyl)-6-oxo-1,6-dihydropyrimidin-5-yl)methyl)-6-oxo-4-(trifluoromethyl)-1,6-dihydropyrimidin-5-yl)oxy)benzonitrile] was tested. Which IC50 did it give?
**A.** 17 nM

**Q.** `CC(=O)c1cc(Cn2cnc(C(F)(F)F)c(Oc3cc(Cl)cc(C#N)c3)c2=O)n[nH]c1=O` [Example 105, 3-((1-((5-acetyl-6-oxo-1,6-dihydropyridazin-3-yl)methyl)-6-oxo-4-(trifluoromethyl)-1,6-dihydropyrimidin-5-yl)oxy)-5-chlorobenzonitrile] was tested. Which IC50 did it give?
**A.** 19 nM

**Q.** For `N#Cc1cc(Cl)cc(Oc2c(C(F)(F)F)ncn(Cc3cnc(-n4cccn4)[nH]c3=O)c2=O)c1` [Example 142, 3-Chloro-5-[6-oxo-1-(6-oxo-2-pyrazol-1-yl-1,6-dihydro-pyrimidin-5-ylmethyl)-4-trifluoromethyl-1,6-dihydro-pyrimidin-5-yloxy]-benzonitrile], which IC50 is on record?
**A.** 35 nM

**Q.** For `N#Cc1cc(Oc2c(C(F)(F)F)ncn(Cc3ccc(=O)[nH]n3)c2=O)cc(C(F)(F)F)c1` [Example 20, 3-((6-oxo-1-((6-oxo-1,6-dihydropyridazin-3-yl)methyl)-4-(trifluoromethyl)-1,6-dihydropyrimidin-5-yl)oxy)-5-(trifluoromethyl) benzonitrile], which IC50 is on record?
**A.** 24 nM

**Q.** Which IC50 does the source give for `N#Cc1cc(Cl)cc(Oc2c(C(F)(F)F)ncn(Cc3cc(-c4cccc(F)c4F)n[nH]c3=O)c2=O)c1` [Example 120, 3-chloro-5-((1-((6-(2,3-difluorophenyl)-3-oxo-2,3-dihydropyridazin-4-yl)methyl)-6-oxo-4-(trifluoromethyl)-1,6-dihydropyrimidin-5-yl)oxy)benzonitrile] here?
**A.** 3 nM

**Q.** With `CC(C)Oc1ccc(-c2cc(Cn3cnc(C(F)(F)F)c(Oc4cc(Cl)cc(C#N)c4)c3=O)n[nH]c2=O)cc1F` [Example 32, 3-chloro-5-((1-((5-(3-fluoro-4-isopropoxyphenyl)-6-oxo-1,6-dihydropyridazin-3-yl)methyl)-6-oxo-4-(trifluoromethyl)-1,6-dihydropyrimidin-5-yl)oxy)benzonitrile] as the compound, how does the IC50 read?
**A.** 13 nM

**Q.** With `CS(=O)(=O)c1cccc(-c2cc(Cn3cnc(C(F)(F)F)c(Oc4cc(Cl)cc(C#N)c4)c3=O)n[nH]c2=O)c1` [Example 70, 3-chloro-5-((1-((5-(3-(methylsulfonyl)phenyl)-6-oxo-1,6-dihydropyridazin-3-yl)methyl)-6-oxo-4-(trifluoromethyl)-1,6-dihydropyrimidin-5-yl)oxy)benzonitrile] as the compound, how does the IC50 read?
**A.** 15 nM

**Q.** Which IC50 does the source give for `CC(O)c1cc(Cn2cnc(C(F)(F)F)c(Oc3cc(Cl)cc(C#N)c3)c2=O)n[nH]c1=O` (centres unmarked) [Example 14, 3-chloro-5-((1-((5-(1-hydroxyethyl)-6-oxo-1,6-dihydropyridazin-3-yl)methyl)-6-oxo-4-(trifluoromethyl)-1,6-dihydropyrimidin-5-yl)oxy)benzonitrile] here?
**A.** 109 nM

**Q.** How did the IC50 turn out when `N#Cc1cc(Cl)cc(Oc2c(C(F)(F)F)ncn(Cc3cc(-c4cccc5c4OCC5)c(=O)[nH]n3)c2=O)c1` [Example 57, 3-chloro-5-((1-((5-(2,3-dihydrobenzofuran-7-yl)-6-oxo-1,6-dihydropyridazin-3-yl)methyl)-6-oxo-4-(trifluoromethyl)-1,6-dihydropyrimidin-5-yl)oxy)benzonitrile] was run?
**A.** 11 nM

**Q.** How did the IC50 turn out when `N#Cc1cc(Cl)cc(Oc2c(C(F)(F)F)ncn(Cc3cc(C(O)C(F)(F)F)c(=O)[nH]n3)c2=O)c1` (centres unmarked) [Example 103, 3-chloro-5-((6-oxo-1-((6-oxo-5-(2,2,2-trifluoro-1-hydroxyethyl)-1,6-dihydropyridazin-3-yl)methyl)-4-(trifluoromethyl)-1,6-dihydropyrimidin-5-yl)oxy)benzonitrile] was run?
**A.** 74 nM

**Q.** With `N#Cc1cc(Cl)cc(Oc2c(C(F)(F)F)ncn(Cc3cc(OC(F)F)c(=O)[nH]n3)c2=O)c1` [Example 109, 3-chloro-5-((1-((5-(difluoromethoxy)-6-oxo-1,6-dihydropyridazin-3-yl)methyl)-6-oxo-4-(trifluoromethyl)-1,6-dihydropyrimidin-5-yl)oxy)benzonitrile] as the compound, how does the IC50 read?
**A.** 7 nM

**Q.** With `Cc1ncn(Cc2ccc(=O)[nH]n2)c(=O)c1Oc1cc(Cl)cc(C#N)c1` [Example 13, 3-chloro-5-((4-methyl-6-oxo-1-((6-oxo-1,6-dihydropyridazin-3-yl)methyl)-1,6-dihydropyrimidin-5-yl)oxy)benzonitrile] as the compound, how does the IC50 read?
**A.** 29 nM

**Q.** With `N#Cc1cc(Cl)cc(Oc2c(C(F)(F)F)ncn(Cc3cc(-c4ccc(C(O)C(F)F)cc4)n[nH]c3=O)c2=O)c1` (centres unmarked) [Example 125, 3-chloro-5-((1-((6-(4-(2,2-difluoro-1-hydroxyethyl)phenyl)-3-oxo-2,3-dihydropyridazin-4-yl)methyl)-6-oxo-4-(trifluoromethyl)-1,6-dihydropyrimidin-5-yl)oxy)benzonitrile] as the compound, how does the IC50 read?
**A.** 8 nM
